# “Also recorded” adds a separate entry of the source.
# Key:
# Assay type in all cases: in vivo, human
# [1] = system: patients with advanced solid tumors; test: Phase I clinical trial, twice weekly oral dosing: toxicity (NCI-CTC version 2.0) and dose limiting toxicities; conditions: for Neuropathy / neurotoxicity on twice weekly regimen compared to weekly schedule: twice weekly vs weekly
# Protocol: Patients with histologically confirmed, advanced solid tumors refractory to standard therapy, ECOG performance status 0-2, and adequate live, renal and bone marrow function without symptomatic brain metastasis or pre-existing neuropathy ≧grade 2 were eligible for the trial.
# The starting dose was 60 mg/m^2 with planned dose escalation of 20 mg/m^2 for each next cohort, consisting of at least 3 patients. Cohorts were expanded to 6 patients upon occurrence of a dose limiting toxicity (DLT). No premedication was required.
# Toxicity was evaluated according to NCI-CTC (version 2.0).
# Dose limiting toxicities (DLTs) were defined as any of the following drug related events occurring during the first cycle (first 4 weeks): grade 4 neutropenia>5 days, febrile neutropenia, grade 4 thrombocytopenia or grade 3 requiring platelet transfusion, any grade 3-4 non-hematological toxicity, QTc interval>500 msec, any significant arrhythmia, any dose reduction or omission due to toxicity.
# [2] = system: advanced solid tumors refractory to standard therapy; test: Phase I clinical trial, twice weekly oral dosing: tumor response (modified WHO criteria)
# Protocol: Patients with histologically confirmed, advanced solid tumors refractory to standard therapy, ECOG performance status 0-2, and adequate live, renal and bone marrow function without symptomatic brain metastasis or pre-existing neuropathy ≧grade 2 were eligible for the trial. The starting dose was 60 mg/m^2 with planned dose escalation of 20 mg/m^2 for each next cohort, consisting of at least 3 patients. Cohorts were expanded to 6 patients upon occurrence of a dose limiting toxicity (DLT). No premedication was required. Tumor response was evaluated according to the modified WHO criteria.
# patients = test: Neuropathy on the weekly treatment schedule (comparison, n = 48)
# [3] = any cycle, 19 patients, 60-100 mg/m^2 twice weekly
structure (smiles),measurement,setting,value
"COC(=O)O[C@@]12CO[C@@H]1C[C@H](O)[C@@]1(C)C(=O)[C@H](OC(C)=O)C3=C(C)[C@@H](OC(=O)[C@H](O)[C@@H](NC(=O)OC(C)(C)C)C(C)(C)C)C[C@@](O)([C@@H](OC(=O)c4ccccc4)[C@H]21)C3(C)C [Compound I, 3′-tert-butyl-3′-N-tert-butyloxycarbonyl-4-deacetyl-3′-dephenyl-3 ′-N-debenzoyl-4-O-methoxycarbonyl-paclitaxel]",Dose limiting toxicities (DLTs),"[1]; 60 mg/m^2 twice weekly (n=3), first cycle",No dose limiting toxicities (DLTs) have been observed
same,"Dose limiting toxicities (DLTs), number","[1]; 80 mg/m^2 twice weekly (n=10), first cycle, a grade 3 fatigue and a dose-omission due to grade 2 peripheral neuropathy",2
same,Toxicity shortly after the first cycle (not meeting DLT criteria),[1]; 100 mg/m^2 twice weekly,"one patient developed grade 4 neutropenia, grade 3 fatigue and grade 3 hematuria"
same,Dose limiting toxicities (DLTs),"[1]; 100 mg/m^2 twice weekly, first three patients, first cycle",no DLTs were observed in the first three patients
same,"Neuropathy (any cycle) Grade 1, no. of patients",[1]; Twice weekly schedule (n = 19),8
same,"Neuropathy (any cycle) Grade 1, percent of patients",[1]; Twice weekly schedule (n = 19),42%
same,"Neuropathy (any cycle) Grade 2, no. of patients",[1]; Twice weekly schedule (n = 19),2
same,"Neuropathy (any cycle) Grade 2, percent of patients",[1]; Twice weekly schedule (n = 19),10%
same,"Neuropathy (any cycle) Total, no. of patients",[1]; Twice weekly schedule (n = 19),10
same,"Neuropathy (any cycle) Total, percent of patients",[1]; Twice weekly schedule (n = 19),52%
same,"Drug-related side effects: Abdominal pain, Gr 1-2 (no. of patients)",[1]; [3],2
same,"Drug-related side effects: Alopecia, Gr 1-2 (no. of patients)",[1]; [3],3
same,"Drug-related side effects: Anorexia, Gr 1-2 (no. of patients)",[1]; [3],6
same,"Drug-related side effects: Diarrhea, Gr 1-2 (no. of patients)",[1]; [3],9
same,"Drug-related side effects: Epistaxis, Gr 1-2 (no. of patients)",[1]; [3],7
same,"Drug-related side effects: Fatigue, Gr 1-2 (no. of patients)",[1]; [3],7
same,"Drug-related side effects: Fatigue, Gr 3 (no. of patients)",[1]; [3],2
same,"Drug-related side effects: Hematuria, Gr 3 (no. of patients)",[1]; [3],1
same,"Drug-related side effects: Motor neuropathy, Gr 1-2 (no. of patients)",[1]; [3],1
same,"Drug-related side effects: Myalgia, Gr 1-2 (no. of patients)",[1]; [3],3
same,"Drug-related side effects: Nausea, Gr 1-2 (no. of patients)",[1]; [3],3
same,"Drug-related side effects: Neutropenia, Gr 1-2 (no. of patients)",[1]; [3],1
same,"Drug-related side effects: Neutropenia, Gr 4 (no. of patients)",[1]; [3],1
same,"Drug-related side effects: Sens. neuropathy, Gr 1-2 (no. of patients)",[1]; [3],10
same,"Drug-related side effects: Stomatitis, Gr 1-2 (no. of patients)",[1]; [3],1
same,"Drug-related side effects: Taste disturbance, Gr 1-2 (no. of patients)",[1]; [3],7
same,"Drug-related side effects: Thrombocytopenia, Gr 1-2 (no. of patients)",[1]; [3],5
same,"Drug-related side effects: Vomiting, Gr 1-2 (no. of patients)",[1]; [3],2
same,Tolerability,[1]; twice weekly treatment regimen,well tolerated
same,Neuropathy / neurotoxicity on twice weekly regimen compared to weekly schedule,[1],reduces peripheral neuropathy; also recorded: neuropathy appears to be less frequent and less severe; also recorded: Neuropathy appears to occur less frequently and to be less severe than on a weekly treatment schedule
same,Neuropathy / neurotoxicity on twice weekly regimen compared to weekly schedule,[1]; listed as 3′-tert-butyl-3′-N-tert-butyloxycarbonyl-4-deacetyl-3′-dephenyl-3′-N-debenzoyl-4,may reduce the neurotoxicity of the drug
same,Confirmed partial responses,[2]; 18 response-evaluable patients,three confirmed partial responses were observed in 18 response-evaluable patients
same,"Confirmed partial responses, no. of patients",[2]; of 3 prostate carcinoma patients,1
same,"Confirmed partial responses, no. of patients",[2]; of 6 response-evaluable NSCLC patients,2
same,Antitumor activity,[2]; patients with NSCLC and prostate carcinoma,Promising activity has been observed
same,"Neuropathy (any cycle) Grade 1, no. of patients",patients; Weekly schedule (n = 48),6
same,"Neuropathy (any cycle) Grade 1, percent of patients",patients; Weekly schedule (n = 48),13%
same,"Neuropathy (any cycle) Grade 2, no. of patients",patients; Weekly schedule (n = 48),19
same,"Neuropathy (any cycle) Grade 2, percent of patients",patients; Weekly schedule (n = 48),40%
same,"Neuropathy (any cycle) Grade 3, no. of patients",patients; Weekly schedule (n = 48),6
same,"Neuropathy (any cycle) Grade 3, percent of patients",patients; Weekly schedule (n = 48),12%
same,"Neuropathy (any cycle) Total, no. of patients",patients; Weekly schedule (n = 48),31
same,"Neuropathy (any cycle) Total, percent of patients",patients; Weekly schedule (n = 48),65%
same,Main and dose limiting toxicity,patients; weekly treatment regimen,peripheral neuropathy

# Reference: US20060258736A1, “DOSING REGIMEN” (Bristol-Myers Squibb Company, priority 2005, published 2006)
